Assay results reported in ChEMBL document CHEMBL1156691, “Structure of a novel thrombin inhibitor with an uncharged D-amino acid as P1 residue” (Eur J Med Chem, 2008).

Legend:
Prothrombin [1] = target: T1, Prothrombin (Homo sapiens, UniProt P00734); test: Binding affinity to thrombin
Prothrombin [2] = target: T1, Prothrombin; test: Inhibition of human thrombin

Compound: NCCc1c[nH]c2cc(F)ccc12
- Kd (Prothrombin [1]): 6.9 mM

Compound: N=C(N)NCCCC[C@@H](NC(=O)[C@@H](Cc1ccc(O)cc1)NC(=O)[C@@H]1CCN1C(=O)[C@H](CC1CCCCC1)NC(=O)[C@H]1CC[C@H](CNC(=N)N)CC1)C(N)=O
- Ki (Prothrombin [2]): 3 nM
